Reference: article PMC7477874, “Targeting L-Proline Uptake as New Strategy for Anti-chagas Drug Development” (Frontiers in Chemistry, 2020)
Several values for one entry are separate records, joined by “and”; a condition that tells them apart may be missing. Equal values may be shown once. Entries after “also recorded” stand apart in the source; their conditions may differ. Read-outs that look alike come from different tables or passages of the source. One block for each compound: values may come before it.

What was measured:
[1] = system: T. cruzi epimastigotes (CL strain clone 14); assay: Growth inhibition assay on T. cruzi epimastigotes; assay type: cell-based, Trypanosoma cruzi; details: for Effect on parasite growth at the maximum concentration: 100 μM; for Times more active than T4C: T. cruzi epimastigotes, IC50 relative to T4C (890 μM)
Procedure: T. cruzi CL strain clone 14 epimastigotes (Brener and […], [1965]) were maintained in the exponential growth phase by subculturing every 48 h in Liver Infusion Tryptose (LIT) medium supplemented with 10% FCS (Vitrocell, Campinas, São Paulo, Brazil) at 28 °C. T. cruzi epimastigotes in the exponential growth phase (5.0-6.0 x 10^7 cells mL^-1) were cultured in fresh LIT medium. The cells were treated with different concentrations of drugs or not treated (negative control). A combination of Rotenone (60 μM) and Antimycin (0.5 μM) was used as a positive control for inhibition as previously described. (Magdaleno et al., [2009]) The cells (2.5 x 10^6 mL^-1) were transferred to 96-well culture plates and incubated at 28 °C. Cell proliferation was quantified by reading the optical density (OD) at 620 nm for 8 days. The OD was converted to cell density values (cells per mL) using a linear regression equation previously obtained under the same conditions. The concentration of compounds that inhibited 50% of parasite proliferation (IC50) was determined during the exponential growth phase (4 days) by fitting the data to a typical sigmoidal dose-response curve using OriginPro8. The compounds were evaluated in quadruplicate in each experiment. The results shown here correspond to three independent experiments. As a cell growth inhibition control, growth curves in which […] were added to the culture medium were run in parallel for all experiments.

[2] = system: T. cruzi epimastigotes (CL strain clone 14); details: cited from earlier work
[3] = system: Vero cells; assay: Cytotoxicity assay on Vero cells (MTT); assay type: cell-based, African green monkey; details: for IC50: Chlorocebus sabaeus, Vero, 48 h, MTT
Procedure: To evaluate the analogs toxicity, Vero cells previously plated on 96 multi-well plate in DMEM 2% FBS and incubated for 48 h at 37 °C in a humid atmosphere containing 5% CO2, were incubated with […] of DMEM 2% FBS supplemented with each analog for 48 h. The concentration (μM) was different with each analog:
The viability of cells was measured by MTT dye (3-(4,5-Dimethylthiazol-2-yl)-2,5-diphenyltratazolium bromide, Sigma-Aldrich) colorimetric method. Benznidazole and DMSO were used as positive and negative controls, respectively. Data are expressed as means ± SD of the results of three independent assays of each condition.

[4] = system: L-proline transporter; assay: L-Proline transport competition assay in T. cruzi epimastigotes; assay type: cell-based, Trypanosoma cruzi; details: 3.1 mM analog; for % of Proline inh.: 0.31 mM L-proline (Km), 30 s; for Proline uptake inhibition (in words): 0.31 mM L-proline
Procedure: Parasites in exponential growth phase were washed three times by centrifugation and resuspended in phosphate buffered saline (PBS), pH 7.4. Cells were counted in a Neubauer chamber, adjusted with the same buffer to a final density of 200 × 10^6 cells/mL and distributed in aliquots of 100 μL (containing 20 × 10^6 cells each). Transport assays were initiated by the addition to the assay tubes of 100 μL of the desired dilution of L-proline in PBS in the presence of […] of L-[3H] proline. Unless otherwise specified, V0 was measured at 28 °C for 30 s by incorporation of 0.75 and 3 mM L-proline traced with 1 μCi of U-^14C-L-Pro (Perkin Elmer). In all cases, proline transport was stopped by addition of […] of cold 50 mM proline in PBS (pH 7.4), and rapid washing by centrifugation at 10,000x g for 2 min. Background values in each experiment were measured by simultaneous addition of radiolabeled L-proline and stop solution as previously described (Silber et al., [2002]). For the competition assays, the transport experiments were performed as described above using the L-Pro concentration corresponding to the Km (0.31 mM). Those conditions were chosen considering an inhibitory activity by structurally related compounds should be competitive, and so, should be evidenced by a change in the […] at L-Pro concentrations close to the Km. Non-competitive inhibitors, if any, should diminish Vmax, which is measured at 10 x Km L-Pro (3.1 mM) (Silber et al., [2002]). […] The analogs were assayed on T. cruzi epimastigotes incubated with proline at the transporter Km concentration (0.31 mM), and the analogs were assayed at concentration 10-fold higher (3.1 mM). […] The oleyl derivate (3k), with an unsaturated fatty tail, has a similar IC50 on T. cruzi epimastigotes compared to the cetyl analog (3j) showing no inhibition in terms of proline uptake (Table 2).  Figure 4 Proline uptake assay. Pro control = Proline control, Pro comp = L-Proline as competitor. 3i-k and 3n = proline level incubated (*p < 0.05) with selected analogs. Pro control (0.31 mM L-proline, [^3H] proline, PBS). Pro Comp (3.1 mM L-proline, [^3H] proline, PBS). Compounds 3i-k and 3n (0.31 mM L-proline, 3.1 mM analog 3x, [^3H] proline, PBS). Stop solution: 50 mM L-proline added after 30 s.

[5] = Solubility observed in the Vero cytotoxicity assay; assay type: physicochemical; details: at 50 μM, Vero cytotoxicity assay medium
Procedure: Vero cells are well established model to test cytotoxicity in vitro because it is an aneuploid and a continuous cell linage. […] Compound 3j was not soluble at 50 μM which made not possible to calculate its IC50.

[6] = Trypanosoma cruzi, 96 h, epimastigotes CL14, IC50 at 4 days, means (SD) from three independent experiments, max. concentration 100 μM, read-out: T. cruzi IC50
[7] = epimastigotes CL14, IC50 at 4 days, means (SD) from three independent experiments, max. concentration 100 μM, read-out: T. cruzi IC50
[8] = Trypanosoma cruzi, epimastigotes, unit given as mM, read-out: T. cruzi epimastigotes IC50 (as restated in the discussion)

SMILES: O=C(O)[C@@H]1CSCN1 [Compound T4C, L-thiazolidine-4-carboxylic acid]
IC50 ([2]; ref Magdaleno et al., 2009, read-out: IC50 on T. cruzi epimastigotes): 890 µM

SMILES: COC(=O)[C@@H]1CCCN1Cc1cn(Cc2ccc3ccccc3c2)nn1 [Compound 3g, Methyl ((1-(Naphthalen-2-Ylmethyl)-1H-1,2,3-Triazol-4-yl)Methyl)-L-Prolinate]
IC50 [1, 6]: 0.1 mM
melting point: 64 to 64.9 °C

SMILES: COC(=O)[C@@H]1CCCN1Cc1cn(CCCc2ccccc2)nn1 [Compound 3e, Methyl ((1-(3-Phenylpropyl)-1H-1,2,3-Triazol-4-yl)Methyl)-L-Prolinate]
IC50 [1, 6]: > 0.1 mM
Effect on parasite growth at the maximum concentration ([1]; epimastigotes): did not affect the parasite growth; also recorded: inactive

SMILES: CCOC(=O)Cn1cc(CN2CCC[C@H]2C(=O)OC)nn1 [Compound 3a, Methyl ((1-(2-Ethoxy-2-Oxoethyl)-1H-1,2,3-Triazol-4-yl)Methyl)-L-Prolinate]
IC50 [1, 6]: > 0.1 mM
Effect on parasite growth at the maximum concentration ([1]; epimastigotes): did not affect the parasite growth; also recorded: inactive

SMILES: CCOC(=O)CCCCn1cc(CN2CCC[C@H]2C(=O)OC)nn1 [Compound 3b, Methyl ((1-(5-Ethoxy-5-Oxopentyl)-1H-1,2,3-Triazol-4-yl)Methyl)-L-Prolinate]
IC50 [1, 6]: > 0.1 mM
Effect on parasite growth at the maximum concentration ([1]; epimastigotes): did not affect the parasite growth; also recorded: inactive

SMILES: O=C(Cn1ccnc1[N+](=O)[O-])NCc1ccccc1 [Benznidazole]
IC50 ([2]; epimastigotes, read-out: T. cruzi IC50): 7 µM

SMILES: COC(=O)[C@@H]1CCCN1Cc1cn(Cc2ccccc2)nn1 [Compound 3c, Methyl ((1-Benzyl-1H-1,2,3-Triazol-4-yl)Methyl)-L-Prolinate]
IC50 [1, 6]: > 0.1 mM
Effect on parasite growth at the maximum concentration ([1]; epimastigotes): did not affect the parasite growth; also recorded: inactive

SMILES: COC(=O)[C@@H]1CCCN1Cc1cn(C2CCCCC2)nn1 [Compound 3d, Methyl ((1-Cyclohexyl-1H-1,2,3-Triazol-4-yl)Methyl)-L-Prolinate]
IC50 [1, 6]: > 0.1 mM
Effect on parasite growth at the maximum concentration ([1]; epimastigotes): did not affect the parasite growth; also recorded: inactive

SMILES: CCCCCCCCn1cc(CN2CCC[C@H]2C(=O)OC)nn1 [Compound 3h, Methyl ((1-Octyl-1H-1,2,3-Triazol-4-yl)Methyl)-L-Prolinate]
IC50 [1, 6]: > 0.1 mM
Effect on parasite growth at the maximum concentration ([1]; epimastigotes): did not affect the parasite growth; also recorded: inactive

SMILES: COC(=O)[C@@H]1CCCN1Cc1cn(CC=Cc2ccccc2)nn1 [Compound 3f, Methyl ((1-Cinnamyl-1H-1,2,3-Triazol-4-yl)Methyl)-L-Prolinate]
IC50 [1, 6]: > 0.1 mM
Effect on parasite growth at the maximum concentration ([1]; epimastigotes): did not affect the parasite growth; also recorded: inactive

Further lines, with some results ahead:

IC50 [1, 6]: 0.0483 mM
IC50 [1, 7]: 0.0697 ± 0.00217 mM
SMILES: COC(=O)[C@@H]1CCCN1Cc1cn(C/C=C(\C)CCCC(C)CCCC(C)CCCC(C)C)nn1 (stereo partly drawn) [Compound 3p, Methyl ((1-((E)-3,7,11,15-Tetramethylhexadec-2-en-1-yl)-1H-1,2,3-Triazol-4-yl)Methyl) -L-Prolinate]

IC50 [1, 6]: 0.0483 ± 0.00581 mM
SMILES: COC(=O)[C@@H]1CCCN1Cc1cn(CC=C(C)CCCC(C)CCCC(C)CCCC(C)C)nn1 (stereo partly drawn) [Compound 3q, Methyl ((1-(3,7,11,15-Tetramethylhexadec-2-en-1-yl)-1H-1,2,3-Triazol-4-yl)Methyl)-L-Prolinate]

IC50 [1, 6]: 0.0586 ± 0.00137 mM
IC50 [1, 8]: 0.0596 mM
SMILES: COC(=O)[C@@H]1CCCN1Cc1cn(C/C=C(\C)CC/C=C(/C)CCC=C(C)C)nn1 [Compound 3o, Methyl ((1-((2E,6Z)-3,7,11-Trimethyldodeca-2,6,10-Trien-1-yl)-1H-1,2,3-Triazol-4-yl)Methyl)-L-Prolinate]

IC50 [1, 6]: > 0.1 mM
SMILES: COC(=O)[C@@H]1CCCN1Cc1cn(CC=C(C)CCC=C(C)C)nn1 [Compound 3m, Methyl ((1-(3,7-Dimethylocta-2,6-Dien-1-yl)-1H-1,2,3-Triazol-4-yl)Methyl)-L-Prolinate]
Effect on parasite growth at the maximum concentration ([1]; epimastigotes): did not affect the parasite growth; also recorded: inactive

IC50 [1, 6]: < 0.04 mM
IC50 [1, 7]: < 0.05 mM and 0.0351 mM
SMILES: CCCCCCCC/C=C\CCCCCCCCn1cc(CN2CCC[C@H]2C(=O)OC)nn1 [Compound 3k, Methyl (Z)-((1-(Octadec-9-en-1-yl)-1H-1,2,3-Triazol-4-yl)Methyl)-L-Prolinate]
Times more active than T4C [1]: 22
Selectivity index (IC50 Vero cells / IC50 T. cruzi epimastigotes) [3]: 0.43
IC50 [3]: 17 µM
% of Proline inh. [4]: 0%
Proline uptake inhibition (in words) [4]: no inhibition

IC50 [1, 6]: < 0.05 mM
IC50 [1, 7]: 0.0483 ± 0.00129 mM
SMILES: COC(=O)[C@@H]1CCCN1Cc1cn(C/C=C(\C)CC/C=C(\C)CCC=C(C)C)nn1 [Compound 3n, Methyl ((1-((2E,6E)-3,7,11-Trimethyldodeca-2,6,10-Trien-1-yl)-1H-1,2,3-Triazol-4-yl)Methyl)-L-Prolinate]
Times more active than T4C [1]: 18
Selectivity index (IC50 Vero cells / IC50 T. cruzi epimastigotes) [3]: 0.25
IC50 [3]: 14 µM
Proline uptake inhibition (in words) [4]: complete inhibition; also recorded: markedly reduction of the internalized proline

IC50 [1, 6]: 0.1 mM
melting point: 72.7 to 73.7 °C
SMILES: CCCCCCCCCCCCCCCCCCCCn1cc(CN2CCC[C@H]2C(=O)OC)nn1 [Compound 3l, Methyl ((1-Icosyl-1H-1,2,3-Triazol-4-yl)Methyl)-L-Prolinate]

IC50 [1, 8]: 0.0245 mM
melting point: 60 to 60.9 °C
SMILES: CCCCCCCCCCCCCCCCn1cc(CN2CCC[C@H]2C(=O)OC)nn1 [Compound 3j, Methyl ((1-Hexadecyl-1H-1,2,3-Triazol-4-yl)Methyl)-L-Prolinate]
Times more active than T4C [1]: 36
% of Proline inh. [4]: 20% and 18^# %
Solubility [5]: not soluble

IC50 [1, 6]: < 0.04 mM
IC50 [1, 7]: < 0.05 mM and 0.038 mM and 0.039 mM
SMILES: CCCCCCCCCCn1cc(CN2CCC[C@H]2C(=O)OC)nn1 [Compound 3i, Methyl ((1-Decyl-1H-1,2,3-Triazol-4-yl)Methyl)-L-Prolinate]
Times more active than T4C [1]: 23
Selectivity index (IC50 Vero cells / IC50 T. cruzi epimastigotes) [3]: 1.13
IC50 [3]: 43 µM
Proline uptake inhibition (in words) [4]: markedly reduction of the internalized proline
